Legend:
α1a-AR = target: T1, α1a-AR (Homo sapiens, UniProt P35348); experiment: α1-Adrenergic receptor radio-ligand (125I-HEAT) binding assay, α1a subtype; settings: COS-7 cell membranes, 125I-HEAT
T1 construct: expressed in transfected cells; host or cells: COS-7
T1 sequence (P35348 1-466): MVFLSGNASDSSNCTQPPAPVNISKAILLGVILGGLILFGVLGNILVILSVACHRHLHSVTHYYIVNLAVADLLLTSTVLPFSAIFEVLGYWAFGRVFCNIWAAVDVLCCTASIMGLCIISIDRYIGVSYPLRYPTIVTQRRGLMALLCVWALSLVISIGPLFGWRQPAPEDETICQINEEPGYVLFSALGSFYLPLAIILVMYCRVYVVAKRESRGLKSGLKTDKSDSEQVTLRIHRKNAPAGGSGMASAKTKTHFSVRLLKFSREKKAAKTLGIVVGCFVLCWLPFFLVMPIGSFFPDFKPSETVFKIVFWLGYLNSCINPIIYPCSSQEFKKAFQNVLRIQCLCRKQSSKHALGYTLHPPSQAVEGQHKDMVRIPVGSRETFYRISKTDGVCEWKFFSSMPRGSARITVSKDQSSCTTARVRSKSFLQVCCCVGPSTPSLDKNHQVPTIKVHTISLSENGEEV
Method in brief: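 Membranes from COS-7 cells transfected with the α1a-AR were incubated with 50 pM final ¹²⁵I-HEAT and test compound (1 pM–10 μM final, half-log steps) in Tris/EDTA/NaCl buffer pH 7.4 for 1 hr at rt. Bound radioactivity was counted after GF/C filtration, in triplicate.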

IUP = experiment: Phenylephrine-induced IUP in a conscious canine model; format: in vivo; settings: conscious dog
Protocol: In-Vivo Evaluation of α1-Adrenergic Antagonists on IUP and MAP in a Conscious Canine Model
An anesthetized dog was fitted with a balloon catheter for the measurement of changes in prostatic IUP and with a number of implanted pressure transducers and telemetry transmitters for measuring MAP.
The pressor effects of challenge doses […] of the α-adrenergic agonist phenylephrine upon IUP and MAP were measured before and at various time points after a single dose (p.o.) of an α-adrenergic antagonist test compound (Compound 69) of the present invention.
Each treatment group was dosed with a test compound (0.1, 0.3, 1.0 and 3.0 mg/kg) in four separate experiments. The first challenge dose of phenylephrine for each treatment group was administered at the time of the test compound dose (time 0). The value for the first challenge dose represents an average of up to three challenge doses administered prior to time 0.
Subsequent challenge doses for all treatment groups were administered at 30 min. then one hour and two hours after time 0.
The final challenge doses for the 0.1 and 0.3 mg/kg groups were administered at four and six hours after time 0. The final challenge doses for the 1.0 mg/kg group were administered at four, six and eight hours after time 0. The final challenge doses for the 3.0 mg/kg group were administered at four, six, 12 and 24 hours after time 0.
A 7F Fogarty balloon catheter lubricated with a water-soluble jelly was inserted into the urethra and advanced into the bladder (approximately 40 cm). The balloon was inflated with approximately water (0.2 mL). The catheter was slowly withdrawn from the bladder to just past the point of first resistance from the bladder neck in order to position the balloon within the prostatic urethra. The balloon was then inflated to approximately 0.7 mL. The balloon port of the catheter was connected to a Gould Statham pressure transducer, the output of which was connected to the pressure input of a Physio Control VSM1 Patient Monitor.
A test compound was administered via the cephalic or saphenous vein using an appropriately sized IV catheter (Surflo, Terumo Medical Corporation or equivalent).
Prior to test compound administration, IUP and MAP responses to an individualized dose of phenylephrine (either 10 or 15 μg/kg IV, depending on the individual animal's response) was repeated 2 to 3 times to establish a baseline response. After test compound administration, the individualized phenylephrine dose was administered to each animal at predetermined intervals over a period of up to 24 hours.
Data for phenylephrine-induced changes in IUP and MAP were tabulated for each treatment group and each experiment. A mean value and standard deviation for the phenylephrine-induced changes to the effect of a test compound on IUP and MAP at each dose was calculated and tabulated for each treatment group over the length of the study.

COc1ccc(S(=O)(=O)N[C@H]2CC[C@@H](N3CCN(c4ccccc4OCC(F)(F)F)CC3)CC2)cc1OC [Cpd 69, 3,4-Dimethoxy-N-cis-(4-{4-[2-(2,2,2-trifluoro-ethoxy)-phenyl]-piperazin-1-yl}-cyclohexyl)-benzenesulfonamide]
Ki (α1a-AR): 1.2 nM | IUP, normalized % of baseline (mean) (IUP; 0.1 mg/kg p.o., 0 hrs (baseline)): 100% | IUP, normalized % of baseline (mean) (IUP; 0.1 mg/kg p.o., 0.5 hrs after dose): 87.3% | IUP, normalized % of baseline (mean) (IUP; 0.1 mg/kg p.o., 1 hrs after dose): 78.3% | IUP, normalized % of baseline (mean) (IUP; 0.1 mg/kg p.o., 2 hrs after dose): 78.8% | IUP, normalized % of baseline (mean) (IUP; 0.1 mg/kg p.o., 4 hrs after dose): 82.5% | IUP, normalized % of baseline (mean) (IUP; 0.1 mg/kg p.o., 6 hrs after dose): 86.5% | IUP, normalized % of baseline (mean) (IUP; 0.3 mg/kg p.o., 0 hrs (baseline)): 100% | IUP, normalized % of baseline (mean) (IUP; 0.3 mg/kg p.o., 0.5 hrs after dose): 63.0% | IUP, normalized % of baseline (mean) (IUP; 0.3 mg/kg p.o., 1 hrs after dose): 47.0% | IUP, normalized % of baseline (mean) (IUP; 0.3 mg/kg p.o., 2 hrs after dose): 51.1% | IUP, normalized % of baseline (mean) (IUP; 0.3 mg/kg p.o., 4 hrs after dose): 70.0% | IUP, normalized % of baseline (mean) (IUP; 0.3 mg/kg p.o., 6 hrs after dose): 84.4% | IUP, normalized % of baseline (mean) (IUP; 1.0 mg/kg p.o., 0 hrs (baseline)): 100% | IUP, normalized % of baseline (mean) (IUP; 1.0 mg/kg p.o., 0.5 hrs after dose): 32.9% | IUP, normalized % of baseline (mean) (IUP; 1.0 mg/kg p.o., 1 hrs after dose): 20.6% | IUP, normalized % of baseline (mean) (IUP; 1.0 mg/kg p.o., 2 hrs after dose): 28.6% | IUP, normalized % of baseline (mean) (IUP; 1.0 mg/kg p.o., 4 hrs after dose): 49.0% | IUP, normalized % of baseline (mean) (IUP; 1.0 mg/kg p.o., 6 hrs after dose): 66.3% | IUP, normalized % of baseline (mean) (IUP; 1.0 mg/kg p.o., 8 hrs after dose): 70.4% | IUP, normalized % of baseline (mean) (IUP; 3.0 mg/kg p.o., 0 hrs (baseline)): 100% | IUP, normalized % of baseline (mean) (IUP; 3.0 mg/kg p.o., 0.5 hrs after dose): 5.2% | IUP, normalized % of baseline (mean) (IUP; 3.0 mg/kg p.o., 1 hrs after dose): 2.2% | IUP, normalized % of baseline (mean) (IUP; 3.0 mg/kg p.o., 2 hrs after dose): 7.0% | IUP, normalized % of baseline (mean) (IUP; 3.0 mg/kg p.o., 4 hrs after dose): 17.1% | IUP, normalized % of baseline (mean) (IUP; 3.0 mg/kg p.o., 6 hrs after dose): 31.6% | IUP, normalized % of baseline (mean) (IUP; 3.0 mg/kg p.o., 12 hrs after dose): 67.7% | IUP, normalized % of baseline (mean) (IUP; 3.0 mg/kg p.o., 24 hrs after dose): 93.8%

From US20060173015A1, “Cyclohexyldiamines as selective alpha 1a/1d adrenoreceptor antagonists for the treatment of benign prostatic hypertrophy and lower urinary tract symptoms” (priority 2004, published 2006)
